Experiment [1] has as its system LLC cells. Briefly: LLC tumor growth in WT mice, anti-PD-L1 antibody and/or CD45 inhibitor. It is filed as in vivo, mouse. The note with it: young WT mice; for tumor growth: CD45 inhibitor (3 mg/kg i.p., from day 7, three times) in combination with anti-PD-L1 antibody (2 mg/kg, days 7, 13, 19), LLC 2×10^6; for inhibitory effect against LLC tumor growth: CD45 inhibitor alone. The procedure: (§1) CD45 inhibition (FIG. 12): 2-(4-acetylanilino)-3-chloronaphthoquinone (211) (530197, EDM Millipore) (12) (3 mg/kg) or N-(9,10-dioxo-9,10-dihydrophenanthren-2-yl)-2,2-dimethylpropionamide (PTP) (540215, Sigma-Aldrich) (13) (3 mg/kg) was administered intraperitoneally to mice before tumor cell inoculation or 5 or 7 days after tumor cell inoculation. MC38 cells (5×10^5 or 1×10^6) or LLC cells (2×10^6) were intradermally inoculated into the right flank of mice (day 0). Seven days after LLC cell inoculation (day 7), mice received intraperitoneal administration of anti-PD-L1 antibody (clone 1-111A.4) (2 mg/kg). Administration of this anti-PD-L1 antibody was repeated 3 times at an interval of 6 days (on days 7, 13, and 19). Tumor size was measured with calipers, and tumor volume was calculated using the following formula: π (length×breadth×height)/6.
LLC cells (2×10^6 cells/tumor) were i.d. inoculated into the right flank of young (1 to 2-month old) WT mice (FIG. 16A). After 7 days, therapy was started using anti-PD-L1 antibody alone or in combination with CD45 inhibitor (211 or PTP) to examine tumor growth (FIG. 16A). […] Further, a therapeutic effect of using CD45 inhibitor alone was examined under similar conditions.

In experiment [2] the test system is MC38 murine colon adenocarcinoma cells. The experiment is described as follows: MC38 tumor growth in PD-1 KO mice given CD45 inhibitor. The note with it: for tumor volume: PD-1 KO mice (2-month old), vs vehicle. Format: in vivo, mouse. On the procedure: as §1
CD45 inhibitor (211) was administered intraperitoneally at 3 mg/kg to PD-1 KO mice (2-month old) once 3 days before inoculation of MC38 murine colon adenocarcinoma cells (preadministration) or 3 times 5 days after inoculation of MC38 cells (postadministration) (FIG. 13A and B). MC38 cells were intradermally inoculated into the right flank of miceat 1×10^6 cells/tumor.
CD45 inhibitor (211) was administered intraperitoneally at 3 mg/kg to young (1 to 2-month old) or aged (14 to 16-month old) PD-1 KO mice […]. Three days after administration of 211, MC38 cells were intradermally inoculated into the right flank of mice at 5×10^5 cells/tumor, followed by monitoring tumor growth.

The results in this text go back to US20240148676A1, “COMBINATION THERAPY WITH PD-1 SIGNAL INHIBITOR” (Kyoto University, priority 2021, published 2024).

Each structure is given as a SMILES string.

Consider `CC(C)(C)C(=O)Nc1ccc2c(c1)C(=O)C(=O)c1ccccc1-2` [PTP, N-(9,10-dioxo-9,10-dihydrophenanthren-2-yl)-2,2-dimethylpropionamide], for which, in experiment [1], the tumor growth result is recorded as “significantly inhibited” and the “inhibitory effect against LLC tumor growth” value is “significant inhibitory effect was not shown”.

Turning to `CC(=O)c1ccc(NC2=C(Cl)C(=O)c3ccccc3C2=O)cc1` [compound 211, 2-(4-acetylanilino)-3-chloronaphthoquinone], the tumor growth entry in experiment [2] (aged (14 to 16-month old) PD-1 KO mice, 3 mg/kg i.p. 3 days before MC38 (5×10^5) inoculation) is “strongly inhibited”; in experiment [1], “significantly inhibited”. Also, the tumor volume result in experiment [2] (postadministration: 3 mg/kg i.p. 3 times from day 5 after MC38 (1×10^6) inoculation) and in experiment [2] (preadministration: 3 mg/kg i.p. once 3 days before MC38 (1×10^6) inoculation) was “significantly reduced” each time. For the same compound, the “inhibitory effect against LLC tumor growth” value in experiment [1] is “significant inhibitory effect was not shown”.
